From the NIST ThermoML archive (doi:10.1007/s10765-006-0110-x)

Conditions: Liquid, Pulse-echo method

COCCOC [1,2-dimethoxyethane]
speed of sound [m/s]
Conditions | 293.15 K | 303.15 K | 313.15 K | 323.15 K | 333.15 K | 343.15 K | 353.15 K
100 kPa | 1188.5 | 1144.8 | 1101.9 | 1059.4 | 1016.5 | 974.9 | 932.8
10000 kPa | 1242 | 1201.1 | 1161.1 | 1122.4 | 1083.1 | 1044.7 | 1005.8
20000 kPa | 1292.4 | 1252.2 | 1215.2 | 1178.7 | 1142.7 | 1107 | 1070
30000 kPa | 1336.4 | 1299.6 | 1263.9 | 1229.3 | 1195.2 | 1161.4 | 1127.3
40000 kPa | 1378.8 | 1343.2 | 1309.2 | 1275.9 | 1243.6 | 1211.6 | 1178.9
50000 kPa | 1418.2 | 1384.1 | 1350.7 | 1319.6 | 1288.4 | 1257.6 | 1226.3
60000 kPa | 1455.6 | 1422.5 | 1390.5 | 1361.5 | 1330.1 | 1300.5 | 1270.4
70000 kPa | 1490.4 | 1458 | 1428.3 | 1398.6 | 1369.3 | 1340.5 | 1311.3
80000 kPa | 1523.9 | 1492.6 | 1463.3 | 1434.7 | 1406.4 | 1378.6 | 1350.2
90000 kPa | 1555.7 | 1525.7 | 1497 | 1468.9 | 1441.3 | 1414.5 | 1387
100000 kPa | 1586.1 | 1557.2 | 1528.8 | 1501.5 | 1474.8 | 1448.7 | 1421.7

COCCOCCOC [2,5,8-trioxanonane]
speed of sound [m/s]
Conditions | 293.15 K | 303.15 K | 313.15 K | 323.15 K | 333.15 K | 343.15 K | 353.15 K
100 kPa | 1298.9 | 1259.3 | 1219.9 | 1180.9 | 1142.4 | 1104.2 | 1066.6
10000 kPa | 1344.9 | 1306.7 | 1269.5 | 1232.5 | 1196.4 | 1160.8 | 1125.7
20000 kPa | 1386.5 | 1350.6 | 1315.4 | 1280.2 | 1246 | 1212 | 1179.3
30000 kPa | 1426.6 | 1392 | 1357.6 | 1324.4 | 1291.4 | 1259.5 | 1228.1
40000 kPa | 1463.9 | 1430.4 | 1397.8 | 1365.5 | 1333.7 | 1303.1 | 1273.4
50000 kPa | 1499.2 | 1466.9 | 1435.3 | 1404 | 1373.6 | 1343.9 | 1314.9
60000 kPa | 1532.5 | 1501.5 | 1470.5 | 1440.6 | 1410.9 | 1382.1 | 1354.4
70000 kPa | 1565.1 | 1534.3 | 1504.4 | 1475.2 | 1446.2 | 1418.6 | 1391.3
80000 kPa | 1595.5 | 1565.8 | 1536.7 | 1508.2 | 1480.1 | 1452.9 | 1426.7
90000 kPa | 1624.9 | 1595.9 | 1567.6 | 1539.8 | 1512.3 | 1485.9 | 1460.4
100000 kPa | 1653.4 | 1625.1 | 1597 | 1569.9 | 1543.1 | 1517.4 | 1492.3
